The values below come from patent US20250152591A1, “TREATMENT OF HEMATOLOGICAL MALIGNANCIES WITH MENIN INHIBITORS AND P-GLYCOPROTEIN INHIBITORS” (Kura Oncology, Inc., priority 2022, published 2025).

SMILES strings stand for the structures. Where two headings read alike, the source gives them in different places.

For the series, the target named is P-gp (Homo sapiens, UniProt P08183). The series can be described thus: P-gp substrate assessment using MDR1-MDCK monolayers (Example 1, +/- valspodar). Also on record: expressed in transfected cells; host or cells: MDR1-MDCK cells. The class given is in vitro ADME. The method, then:
MDR1-MDCK cell monolayers were grown to confluence on collagen-coated, microporous membranes in 12-well assay plates. Details of the plates and their certification are shown below. The permeability assay buffer was Hanks' balanced salt solution (HBSS) containing 10 mM HEPES and 15 mM glucose at a pH of 7.4. The buffer in the receiver chamber also contained 1% bovine serum albumin. The dosing solution concentration was 5 μM of test article in the assay buffer+/−1 μM valspodar. Cells were first pre-incubated for 30 min with HBSS containing+/−1 μM valspodar. Cell monolayers were dosed on the apical side (A-to-B) or basolateral side (B-to-A) and incubated at 37° C. with 5% CO2 in a humidified incubator. Samples were taken from the donor and receiver chambers at 120 min. Each determination was performed in duplicate. The flux of lucifer yellow was also measured post-experimentally for each monolayer to ensure no damage was inflicted to the cell monolayers during the flux period. All samples were assayed by LC-MS/MS using electrospray ionization. Liquid chromatography conditions are summarized as follows: Column: Thermo BDS Hypersil C18 30×2.1 mm, […], with guard column; M.P. Buffer: 25 mM ammonium formate buffer, pH 3.5; Aqueous Reservoir (A): 90% water, 10% buffer; Organic Reservoir (B): 90% acetonitrile, 10% buffer; Flow Rate: 350 μL/minute; Total run time: 3.5 min; Autosampler: 10 μL injection volume; Autosampler wash: water/methanol/2-propanol: 1/1/1; with 0.2% formic acid.
The apparent permeability (Papp) and percent recovery were calculated as follows: […]
where, • dCr/dt is the slope of the cumulative concentration in the receiver compartment versus time in μM s^−1; • Vr is the volume of the receiver compartment in cm^3; • Vd is the volume of the donor compartment in cm^3; • A is the area of the insert (1.13 cm^2 for 12-well); • CA is the average of the nominal dosing concentration and the measured 120 minute donor concentration in μM; • CN is the nominal concentration of the dosing solution in μM; • Cr^final is the cumulative receiver concentration in μM at the end of the incubation period; • Cd^final is the concentration of the donor in μM at the end of the incubation period.
Efflux ratio (ER) is defined as Papp (B-to-A)/Papp (A-to-B).
• ER≥2.0 without valspodar, and reduced by ≥50% with valspodar: Positive • ER≥2.0 without valspodar, and reduced by <50% with valspodar: Negative • ER<2.0 without and with valspodar: Negative

Sequence of P-gp (P08183 whole entry): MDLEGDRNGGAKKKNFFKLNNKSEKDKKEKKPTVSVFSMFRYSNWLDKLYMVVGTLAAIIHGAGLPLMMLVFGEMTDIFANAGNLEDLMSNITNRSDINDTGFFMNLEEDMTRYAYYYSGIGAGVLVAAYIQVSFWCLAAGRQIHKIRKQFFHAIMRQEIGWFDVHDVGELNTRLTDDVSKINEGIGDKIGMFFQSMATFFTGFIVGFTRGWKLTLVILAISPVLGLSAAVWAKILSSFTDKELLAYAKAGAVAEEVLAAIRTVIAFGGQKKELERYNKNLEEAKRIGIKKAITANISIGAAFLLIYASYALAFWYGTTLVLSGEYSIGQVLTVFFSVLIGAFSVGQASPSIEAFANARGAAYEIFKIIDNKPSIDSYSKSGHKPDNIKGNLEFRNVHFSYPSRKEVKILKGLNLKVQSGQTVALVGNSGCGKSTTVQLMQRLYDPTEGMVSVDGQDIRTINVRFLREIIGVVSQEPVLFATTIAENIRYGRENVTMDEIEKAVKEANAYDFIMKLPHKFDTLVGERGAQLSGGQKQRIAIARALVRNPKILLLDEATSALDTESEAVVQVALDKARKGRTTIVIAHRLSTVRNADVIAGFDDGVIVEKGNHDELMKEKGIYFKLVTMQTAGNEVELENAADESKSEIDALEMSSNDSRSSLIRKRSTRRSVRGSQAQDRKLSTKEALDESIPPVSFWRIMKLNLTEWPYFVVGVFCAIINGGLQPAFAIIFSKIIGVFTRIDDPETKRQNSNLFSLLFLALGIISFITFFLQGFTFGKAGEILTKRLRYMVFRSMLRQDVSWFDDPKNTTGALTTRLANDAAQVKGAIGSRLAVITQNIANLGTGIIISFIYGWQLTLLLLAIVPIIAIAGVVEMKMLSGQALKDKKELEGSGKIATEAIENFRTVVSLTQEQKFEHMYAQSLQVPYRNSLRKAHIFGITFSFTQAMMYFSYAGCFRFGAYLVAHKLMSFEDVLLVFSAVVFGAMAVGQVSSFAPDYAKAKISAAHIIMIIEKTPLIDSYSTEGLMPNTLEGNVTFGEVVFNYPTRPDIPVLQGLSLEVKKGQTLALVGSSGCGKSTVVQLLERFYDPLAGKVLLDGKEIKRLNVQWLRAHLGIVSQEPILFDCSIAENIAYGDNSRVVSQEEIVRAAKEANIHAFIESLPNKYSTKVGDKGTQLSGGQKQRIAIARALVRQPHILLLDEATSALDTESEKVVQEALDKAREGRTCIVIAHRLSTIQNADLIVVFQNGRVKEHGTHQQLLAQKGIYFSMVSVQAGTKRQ

For the compound `CNc1nc(NC2CCN(Cc3ccc4c(cc(C#N)n4C[C@H](C)N4CCN(S(C)(=O)=O)CC4)c3C)CC2)c2cc(CC(F)(F)F)sc2n1` [Compound I], under “A-to-B, without valspodar”, the “Papp Avg” value is recorded as 0.09 10^−6 cm/s. The “P-gp substrate” value (MDR1-MDCK cell monolayers) is on record as “substrate of P-gp”. In addition, the “P-gp Substrate Classification” value (MDR1-MDCK, ER without and with valspodar) is “Positive (ER≥2.0 without valspodar, and reduced by ≥50% with valspodar)”. Further, the recovery at 120 min, 5 μM by setting is: (dog, MDCK-MDR1, pH 7.4, A-to-B, 5 μM test article, without valspodar) 70%; (dog, MDCK-MDR1, pH 7.4, B-to-A, 5 μM test article, without valspodar) 83%; (dog, MDCK-MDR1, pH 7.4, with valspodar 1 μM, A-to-B, 5 μM test article + 1 μM valspodar) 53%; (dog, MDCK-MDR1, pH 7.4, with valspodar 1 μM, B-to-A, 5 μM test article + 1 μM valspodar) 118%. For the same compound, the Papp B→A at 120 min, 5 μM runs as follows: (dog, MDCK-MDR1, pH 7.4, B-to-A, without valspodar, read-out: Papp Avg) 9.41 ×10⁻⁶ cm/s; (dog, MDCK-MDR1, pH 7.4, B-to-A, without valspodar, read-out: Papp R1) 6.43 ×10⁻⁶ cm/s; (dog, MDCK-MDR1, pH 7.4, B-to-A, without valspodar, read-out: Papp R2) 9.21 ×10⁻⁶ cm/s; (dog, MDCK-MDR1, pH 7.4, B-to-A, without valspodar, read-out: Papp R3) 12.6 ×10⁻⁶ cm/s. The compound also registered a Papp A→B at 120 min, 5 μM (dog, MDCK-MDR1, pH 7.4, A-to-B, without valspodar) of 0.09 ×10⁻⁶ cm/s. Under “dog, MDCK-MDR1, pH 7.4, Papp (B-to-A)/Papp (A-to-B), without valspodar”, the efflux ratio at 120 min, 5 μM stood at 105.

For orientation: Papp A→B means how fast a substance crosses the layer from the apical side. By efflux ratio is commonly meant a quotient of directional permeabilities that is used to spot active efflux.
